According to patent US7442801B2, “Pyrazole compound” (Sumitomo Chemical Company, Limited, priority 2003, dated 2008):

System: Tetranychus urticae
Assay: Test Example 1: Controlling Rate against Tetranychus urticae on brush bean, spray
Type: in vivo
Conditions: 500 ppm, 30 ml sprayed on brush bean (Phaseolus vulgaris) with female adults
Experimental: Each of the present compounds (2) to (15), (17) to (33), (36) to (40) and the comparative compound described below was formulated according to Formulation Example 5, and each formulations was diluted with water so that the concentration of the present compound or the comparative compound came to 500 ppm.
About twenty female adults of Tetranychus urticae were set free on brush bean (Phaseolus vulgaris) in the primary leaf stage, which had been potted in a plastic cup for 7 days after the seeding. After 1 day, a 30 ml of the diluted formulation described-above was sprayed over the plant. On the 8th and 13th day after the application, the numbers of lived Tetranychus urticae on the leaf of brush bean plant were examined, and the Controlling Rates were calculated by the following scheme. Controlling Rate=100×{1−(a number of lived Tetranychus urticae in the treatment)/(a number of lived Tetranychus urticae in the non-treatment)}

Question: With `Cc1nn(C)c(Oc2ccc(Oc3ccc(C(F)(F)F)cc3)cc2)c1C=NOCc1ccccc1` [comparative compound] as the compound, how does the “Controlling Rate” value (8th day after the application) read?
Answer: less than 30%

Question: What about the “Controlling Rate” value (13th day after the application) of the same compound?
Answer: less than 30%
